Values of other authors in patent EP4360619A1, “DOSAGE FORM FOR INTRA-ARTICULAR INJECTION […] AN […] IN THE TREATMENT OF CRYSTAL-AND NON-CRYSTAL […] IN[…]” (PK MED, priority 2022, dated 2024).

Settings: literature (E.Niel et al)

For `COc1cc2c(c(OC)c1OC)-c1ccc(OC)c(=O)cc1[C@@H](NC(C)=O)CC2` [colchicine, N-[(7S)-1,2,3,10-tetramethoxy-9-oxo-6,7-dihydro-5H-benzo[a]heptalen-7-yl]acetamide], the lethal dose is given as 0.8 mg/kg and the toxicity limit is given as 0.1 mg/kg.
